In US6525066B2, “4-oxoquinolizine antimicrobial having 2-pyridone skeleton as partial structure” (SATO Pharmaceutical Co., Ltd., priority 1999, dated 2003):
Values after ≈ are worked out from the molar mass of the structure shown.

Tests used:
Assay type in all cases: cell-based
[1] = system: Bacteroides fragilis GAI0675; assay: In vitro antibacterial activity against anaerobic bacteria (MIC); conditions: Bacteroides fragilis GAI0675 (Table 2: Bacteroides GMI0675), anaerobic bacteria method; for MIC: read-out: Antibacterial spectrum MIC
Experimental: (§1) The in vitro antibacterial activity of the present compound (Example 2, 4, 6, 8, 10, 12, 14, 16 and 18) was tested by the standard method of Japan Chemical Therapy Institute using agar plate dilution method which is described in CHEMOTHERAPY Vol.29, […], 1981. For an anaerobic bacteria, it was tested by the method described in CHEMOTHERAPY Vol. 27, 559-590, 1979. The minimum concentration at which the growth of a bacteria could be inhibited by the present compound was decided as MIC (μg/ml).

[2] = system: Streptococcus aureus Clin-211; assay: In vitro antibacterial activity, agar plate dilution method (MIC); conditions: for MIC: CLIN211, read-out: Antibacterial spectrum MIC
Experimental: as §1

[3] = system: Streptococcus Pneumoniae IID553; assay: as above; conditions: for MIC: read-out: Antibacterial spectrum MIC
Experimental: as §1

[4] = system: Streptococcus aureus JCM2874; assay: as above; conditions: for MIC: read-out: Antibacterial spectrum MIC
Experimental: as §1

[5] = system: Escherichia coli IFO 12734; assay: as above; conditions: for MIC: IFO12734, read-out: Antibacterial spectrum MIC
Experimental: as §1

[6] = system: Pseudomonas aeruginosa CSJ 1853; assay: as above; conditions: for MIC: CSJ1853, read-out: Antibacterial spectrum MIC
Experimental: as §1

MIC [1]	MIC [2]	MIC [3]	MIC [4]	MIC [5]	MIC [6]	Antibacterial spectrum MIC [1]	Antibacterial spectrum MIC [2]	Antibacterial spectrum MIC [3]	Antibacterial spectrum MIC [4]	Antibacterial spectrum MIC [5]	Antibacterial spectrum MIC [6]	Compound
0.063 µg/mL (≈ 0.161 µM)	0.5 µg/mL (≈ 1.28 µM)	0.125 µg/mL (≈ 0.32 µM)	0.031 µg/mL (≈ 0.0794 µM)	0.125 µg/mL (≈ 0.32 µM)	2 µg/mL (≈ 5.12 µM)	–	–	–	–	–	–	COc1cc(-c2ccn3c(=O)c(C(=O)O)cc(C4CC4)c3c2C)cc2c1CNC2 [Example 18, 1-cyclopropyl-9-methyl-8-(4-methoxy-isoindoline-6-yl)-4-oxo-4H-quinolizine-3-carboxylic acid]
0.031 µg/mL (≈ 0.0828 µM)	0.25 µg/mL (≈ 0.668 µM)	0.063 µg/mL (≈ 0.168 µM)	0.008 µg/mL (≈ 0.0214 µM)	0.031 µg/mL (≈ 0.0828 µM)	0.25 µg/mL (≈ 0.668 µM)	–	–	–	–	–	–	Cc1c(-c2ccc3c(c2)CNC3C)ccn2c(=O)c(C(=O)O)cc(C3CC3)c12 (stereo not drawn) [Example 2, 1-cyclopropyl-9-methyl-8-(1-methylisoindoline-5-yl)-4-oxo-4H-quinolizine-3-carboxylic acid]
0.5 µg/mL (≈ 1.38 µM)	4 µg/mL (≈ 11.1 µM)	1 µg/mL (≈ 2.77 µM)	0.25 µg/mL (≈ 0.692 µM)	0.063 µg/mL (≈ 0.174 µM)	0.5 µg/mL (≈ 1.38 µM)	–	–	–	–	–	–	C[C@H]1COc2c(N3CCN(C)CC3)c(F)cc3c(=O)c(C(=O)O)cn1c23 [LVFX, levofloxacin, reference compound]
0.031 µg/mL (≈ 0.086 µM)	0.125 µg/mL (≈ 0.347 µM)	0.031 µg/mL (≈ 0.086 µM)	0.008 µg/mL (≈ 0.0222 µM)	0.016 µg/mL (≈ 0.0444 µM)	0.25 µg/mL (≈ 0.694 µM)	–	–	–	–	–	–	Cc1c(-c2ccc3c(c2)CNC3)ccn2c(=O)c(C(=O)O)cc(C3CC3)c12 [Example 6, 1-cyclopropyl-9-methyl-8-(isoindoline-5-yl)-4-oxo-4H-quinolizine-3-carboxylic acid]
0.016 µg/mL (≈ 0.0423 µM)	0.125 µg/mL (≈ 0.33 µM)	0.031 µg/mL (≈ 0.0819 µM)	0.008 µg/mL (≈ 0.0211 µM)	0.031 µg/mL (≈ 0.0819 µM)	0.5 µg/mL (≈ 1.32 µM)	–	–	–	–	–	–	Cc1c(-c2cc(F)c3c(c2)CNC3)ccn2c(=O)c(C(=O)O)cc(C3CC3)c12 [Example 14, 1-cyclopropyl-8-(4-fluoroisoindoline-6-yl)-9-methyl-4-oxo-4H-quinolizine-3-carboxylic acid]
–	–	–	–	–	–	0.25 µg/mL	1 µg/mL	0.25 µg/mL	0.031 µg/mL	0.125 µg/mL	4 µg/mL	O=C(O)c1cc(C2CC2)c2c(OC(F)F)c(-c3ccc4c(c3)CNC4)ccn2c1=O [Example 12, 1-cyclopropyl-9-difloromethoxy-8-(isoindoline-5-yl)-4-oxo-4H-quinolizine-3-carboxylic acid]
0.25 µg/mL (≈ 0.664 µM)	0.5 µg/mL (≈ 1.33 µM)	0.25 µg/mL (≈ 0.664 µM)	0.063 µg/mL (≈ 0.167 µM)	0.063 µg/mL (≈ 0.167 µM)	1 µg/mL (≈ 2.66 µM)	–	–	–	–	–	–	COc1c(-c2ccc3c(c2)CNC3)ccn2c(=O)c(C(=O)O)cc(C3CC3)c12 [Example 8, 1-cyclopropyl-9-methoxy-8-(isoindoline-5-yl)-4-oxo-4H-quinolizine-3-carboxylic acid]
0.5 µg/mL (≈ 1.17 µM)	1 µg/mL (≈ 2.35 µM)	0.25 µg/mL (≈ 0.586 µM)	0.063 µg/mL (≈ 0.148 µM)	0.125 µg/mL (≈ 0.293 µM)	4 µg/mL (≈ 9.38 µM)	–	–	–	–	–	–	CC1NCc2cc(-c3ccn4c(=O)c(C(=O)O)cc(C5CC5)c4c3OC(F)F)ccc21 (stereo not drawn) [Example 10, 1-cyclopropyl-9-difluoromethoxy-8-((+)-1-methylisoindoline-5-yl)-4-oxo-4H-quinolizine-3-carboxylic acid]
0.25 µg/mL (≈ 0.615 µM)	2 µg/mL (≈ 4.92 µM)	0.5 µg/mL (≈ 1.23 µM)	0.125 µg/mL (≈ 0.308 µM)	0.5 µg/mL (≈ 1.23 µM)	8 µg/mL (≈ 19.7 µM)	–	–	–	–	–	–	COc1cc(-c2ccn3c(=O)c(C(=O)O)cc(C4CC4)c3c2OC)cc2c1CNC2 [Example 16, 1-cyclopropyl-9-methoxy-8-(4-methoxyisoindoline-6-yl)-4-oxo-4H-quinolizine-3-carboxylic acid]
0.25 µg/mL (≈ 0.64 µM)	1 µg/mL (≈ 2.56 µM)	0.25 µg/mL (≈ 0.64 µM)	0.063 µg/mL (≈ 0.161 µM)	0.125 µg/mL (≈ 0.32 µM)	1 µg/mL (≈ 2.56 µM)	–	–	–	–	–	–	COc1c(-c2ccc3c(c2)CNC3C)ccn2c(=O)c(C(=O)O)cc(C3CC3)c12 (stereo not drawn) [Example 4, 1-cyclopropyl-9-methoxy-8-(1-methylisoindoline-5-yl)-4-oxo-4H-quinolizine-3-carboxylic acid]
